Assay results: ChEMBL document CHEMBL1201862, “PubChem BioAssay data set” (2004)
Active and inactive are the calls of the source.

How the values were obtained:
[1] = HepG2 cell cytotoxicity, dose response, cytotoxicity control, ATP luminescence, cherry-pick, set 6 (AID 1053125); type: functional, cell-based
[2] = biological target: T1, Oxysterols receptor LXR-beta (Homo sapiens, UniProt P55055); type: functional, cell-based;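 also: agonist activity at LXR measured by a cell-based luminescence readout across a dose range, run as a counterscreen for daf-12 agonists; potency for activation of Gal4-LXR reporter so compounds are agonists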
T1 sequence (P55055 whole entry): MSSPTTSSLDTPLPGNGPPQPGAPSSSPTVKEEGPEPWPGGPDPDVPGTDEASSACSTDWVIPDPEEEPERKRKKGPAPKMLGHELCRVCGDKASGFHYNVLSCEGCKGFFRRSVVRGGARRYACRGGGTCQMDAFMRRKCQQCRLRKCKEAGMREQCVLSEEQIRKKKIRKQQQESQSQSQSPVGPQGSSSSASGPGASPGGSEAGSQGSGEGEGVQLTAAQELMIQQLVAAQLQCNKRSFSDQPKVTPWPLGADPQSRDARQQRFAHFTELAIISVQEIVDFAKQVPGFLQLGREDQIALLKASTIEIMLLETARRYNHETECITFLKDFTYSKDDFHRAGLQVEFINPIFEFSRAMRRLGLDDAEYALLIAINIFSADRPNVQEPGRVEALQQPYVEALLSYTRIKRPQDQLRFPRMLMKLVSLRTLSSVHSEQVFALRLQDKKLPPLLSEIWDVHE

H4 = assay: Luminescence Cell-Based Dose Response HTS to Identify Activators of 5'UTR Stem-Loop Driven Prion Protein mRNA Translation in H4 Neuroglioblastoma Cells. [Related pubchem assays: 1829 (Project Summary), 1814 (Primary HTS)]; type: functional; conditions: Homo sapiens
[3] = Luminescence Cell-Based Dose Confirmation HTS to Identify Activators of 5'UTR Stem-Loop Driven Alpha-Synuclein mRNA Translation in H4 Neuroglioblastoma Cells. [Related pubchem assays: 1829 (Project Summary), 1814 (Primary HTS)]; type: functional
[4] = Luminescence Cell-Based Dose Response HTS to Identify Activators of Luciferase Translation or Activity in H4 […] Cells. [Related pubchem assays: 1829 (Project Summary), 1814 (Primary HTS)]; type: functional
[5] = NIH:OVCAR-3 ovarian cancer cell cytotoxicity, dose response, PAX8 inhibitor project, plate reader, dry powder samples (AID 743044); type: functional, cell-based
[6] = A2780 ovarian cancer cell cytotoxicity, dose response, cytotoxicity control, plate reader, dry powder samples (AID 743046); type: functional, cell-based
[7] = cytotoxicity in OVCAR8 ovarian cancer cells, dose response, PAX8 project, cell-based, plate reader, dry powder samples (AID 743197); type: functional; conditions: OVCAR-8
Paired box protein Pax-8 = Paired box protein Pax-8 (Homo sapiens, UniProt Q06710); assay: inhibitors of PAX8-driven TPO luciferase reporter, dose response, RMG-I cells, cherry-pick (AID 687027); type: functional, cell-based;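 also: luciferase reporter driven by Pax8 target thyroperoxidase promoter measured by SteadyGlo luminescence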
Paired box protein Pax-8, sequence (Q06710 whole entry): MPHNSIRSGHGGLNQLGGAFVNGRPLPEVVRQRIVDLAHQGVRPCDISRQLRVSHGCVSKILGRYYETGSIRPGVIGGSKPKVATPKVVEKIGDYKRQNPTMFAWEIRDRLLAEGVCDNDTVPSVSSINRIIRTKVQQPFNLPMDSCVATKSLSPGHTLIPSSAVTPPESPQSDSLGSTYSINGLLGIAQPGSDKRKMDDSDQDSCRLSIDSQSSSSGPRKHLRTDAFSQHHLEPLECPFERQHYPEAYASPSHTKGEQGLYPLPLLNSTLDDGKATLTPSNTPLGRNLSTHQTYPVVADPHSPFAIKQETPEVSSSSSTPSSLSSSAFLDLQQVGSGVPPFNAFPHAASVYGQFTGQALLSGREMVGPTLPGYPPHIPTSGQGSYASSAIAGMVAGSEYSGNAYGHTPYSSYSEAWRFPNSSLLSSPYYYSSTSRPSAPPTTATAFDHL

[8] = IGROV1 ovarian cancer cell cytotoxicity, dose response, PAX8 inhibitor project, plate reader, dry powder samples (AID 743043); type: functional, cell-based; conditions: IGROV-1
[9] = biological target: Sphingosine 1-phosphate receptor 2 (Homo sapiens, UniProt O95136); assay: Dose Response Cell Based Assay for Agonists of the S1P2 Receptor. [Related pubchem assays: 729, 736, 843 ]; type: functional
Sphingosine 1-phosphate receptor 2, sequence (O95136 whole entry): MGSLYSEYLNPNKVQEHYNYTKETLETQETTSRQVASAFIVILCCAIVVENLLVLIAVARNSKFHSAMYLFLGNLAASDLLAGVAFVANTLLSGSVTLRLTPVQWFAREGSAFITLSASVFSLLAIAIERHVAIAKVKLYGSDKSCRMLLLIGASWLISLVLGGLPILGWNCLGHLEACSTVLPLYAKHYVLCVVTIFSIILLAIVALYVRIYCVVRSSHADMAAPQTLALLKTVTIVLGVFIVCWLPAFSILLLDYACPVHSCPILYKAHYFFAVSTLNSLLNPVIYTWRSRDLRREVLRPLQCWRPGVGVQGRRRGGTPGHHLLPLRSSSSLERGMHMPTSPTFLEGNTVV

[10] = biological target: Muscarinic acetylcholine receptor M5 (Homo sapiens, UniProt P08912); assay: M5 receptor positive allosteric modulators, dose response, cell-based, concentration-response curve (AID 651878); type: functional
Muscarinic acetylcholine receptor M5, sequence (P08912 whole entry): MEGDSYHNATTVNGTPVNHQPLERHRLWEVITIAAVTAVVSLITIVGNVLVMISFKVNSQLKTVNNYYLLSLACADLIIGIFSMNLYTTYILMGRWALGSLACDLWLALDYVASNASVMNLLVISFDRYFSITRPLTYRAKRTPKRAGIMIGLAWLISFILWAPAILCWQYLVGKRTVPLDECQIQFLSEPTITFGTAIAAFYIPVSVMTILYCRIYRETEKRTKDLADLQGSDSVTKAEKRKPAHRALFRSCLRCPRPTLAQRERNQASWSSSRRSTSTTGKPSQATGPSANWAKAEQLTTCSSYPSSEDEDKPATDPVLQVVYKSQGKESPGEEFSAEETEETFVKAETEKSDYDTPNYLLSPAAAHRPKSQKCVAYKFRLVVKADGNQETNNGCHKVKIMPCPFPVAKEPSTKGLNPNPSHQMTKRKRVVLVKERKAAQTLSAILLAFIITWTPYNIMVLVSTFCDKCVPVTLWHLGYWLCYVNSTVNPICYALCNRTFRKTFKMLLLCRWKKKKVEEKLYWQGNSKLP

Caspase-6 = Caspase-6 (Homo sapiens, UniProt P55212); assay: human caspase-6 inhibitors, dose response, biochemical, VEID-R110 fluorescence, cherry-pick (AID 720632)
Caspase-6, sequence (P55212 24-179 limits assumed): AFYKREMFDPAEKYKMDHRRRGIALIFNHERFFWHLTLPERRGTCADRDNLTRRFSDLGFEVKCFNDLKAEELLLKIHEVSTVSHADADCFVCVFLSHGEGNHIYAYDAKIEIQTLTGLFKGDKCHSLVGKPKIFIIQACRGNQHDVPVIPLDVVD
Caspase-6, sequence (P55212 194-293 limits assumed): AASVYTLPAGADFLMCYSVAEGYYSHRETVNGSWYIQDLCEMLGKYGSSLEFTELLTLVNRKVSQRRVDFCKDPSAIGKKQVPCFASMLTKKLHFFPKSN

[11] = inhibitors of intracellular T. cruzi replication, confirmation, NIH3T3 host cells, beta-gal luminescence (AID 2044); type: functional, cell-based;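 also: intracellular parasites grown in NIH/3T3 mouse fibroblasts as host cells; luminescent beta-galactosidase reporter signal from transgenic T. cruzi replicating inside host cells; inhibitors lower the luminescence signal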
[12] = cytotoxicity toward NIH3T3 fibroblasts, dose response, counter-screen, cell-based, ATP luminescence, mouse fibroblasts (AID 2010); type: functional;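 also: cells exposed to compound for about 90 hours before reading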
[13] = biological target: T1, Oxysterols receptor LXR-beta; assay: LXR agonists, Gal4 luciferase reporter, dose response, counter-screen for ssDAF-12 agonist project, cell-based, luminescence, HEK293, S. stercoralis campaign (AID 720737); type: functional; conditions: read-out: IC50 (the source's name)
[14] = Luminescence-based cell-based high throughput dose response assay to identify activators of the DAF-12 from the parasite S. stercoralis (ssDAF-12).; type: functional
[15] = HeLa 4N DNA content increase, dose response, cell-based, IC50 (AID 1117351); type: functional
[16] = HeLa 2N DNA content increase, dose response, cell-based, IC50 (AID 1117349); type: functional
[17] = inhibitors of PGC1a acetylation in cells, dose response, cell-based, cherry-picked samples (AID 720514); type: functional;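 also: potency may reflect raised or lowered acetylation signal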
[18] = HepG2 cell cytotoxicity, dose response, cytotoxicity control, cherry-picked samples (AID 1159577); type: functional, cell-based
[19] = P. falciparum Dd2 growth inhibitors, dose response, SYBR Green, cherry-picked samples (AID 1159567); type: functional, cell-based
Ephrin type-A receptor 4 = Ephrin type-A receptor 4 (Mus musculus, UniProt Q03137); assay: inhibitors of EphA4 binding to KYL peptide, primary screen, biochemical, colorimetric, mouse EphA4 (AID 689); type: functional
Ephrin type-A receptor 4, sequence (Q03137 whole entry): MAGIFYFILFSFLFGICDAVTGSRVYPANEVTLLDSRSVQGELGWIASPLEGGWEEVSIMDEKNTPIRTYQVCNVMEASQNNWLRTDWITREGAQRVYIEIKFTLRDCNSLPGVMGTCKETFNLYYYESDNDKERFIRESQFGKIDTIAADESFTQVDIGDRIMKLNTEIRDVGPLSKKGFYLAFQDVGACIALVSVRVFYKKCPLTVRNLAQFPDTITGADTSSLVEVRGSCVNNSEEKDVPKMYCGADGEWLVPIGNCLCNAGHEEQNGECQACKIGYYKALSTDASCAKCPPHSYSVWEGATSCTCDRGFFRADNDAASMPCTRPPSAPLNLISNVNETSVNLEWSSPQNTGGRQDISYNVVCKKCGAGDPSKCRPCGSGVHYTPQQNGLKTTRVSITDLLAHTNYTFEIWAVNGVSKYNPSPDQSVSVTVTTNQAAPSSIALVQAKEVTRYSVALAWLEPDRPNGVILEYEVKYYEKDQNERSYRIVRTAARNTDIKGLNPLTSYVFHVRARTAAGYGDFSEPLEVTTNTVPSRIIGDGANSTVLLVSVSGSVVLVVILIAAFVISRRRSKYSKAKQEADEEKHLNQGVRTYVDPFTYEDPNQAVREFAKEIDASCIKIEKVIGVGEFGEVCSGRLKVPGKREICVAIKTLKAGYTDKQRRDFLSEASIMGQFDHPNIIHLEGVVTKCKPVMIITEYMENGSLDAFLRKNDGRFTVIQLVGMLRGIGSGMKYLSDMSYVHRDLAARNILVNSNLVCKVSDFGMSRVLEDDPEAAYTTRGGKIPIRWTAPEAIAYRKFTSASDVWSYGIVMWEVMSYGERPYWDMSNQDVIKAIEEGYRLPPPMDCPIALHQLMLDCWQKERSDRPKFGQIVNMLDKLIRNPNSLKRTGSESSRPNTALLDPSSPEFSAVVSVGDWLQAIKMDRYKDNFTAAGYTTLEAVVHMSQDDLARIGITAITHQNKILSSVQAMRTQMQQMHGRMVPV

[20] = tested on: Streptococcus sp. 'group A'; assay: growth inhibition of control SK(-) GAS strain, dose response, counter-screen for streptokinase expression inhibitor project, luminescence, kanamycin, BacTiterGlo, confirmation (AID 1900); type: functional, organism-based
Streptococcus = assay: Group A Streptococcus viability loss, dose response, counter-screen for streptokinase expression inhibitor project, luminescence, BacTiterGlo (AID 1915); type: functional, organism-based;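 also: potency for reduction of bacterial viability or growth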
Streptokinase A = biological target: T2, Streptokinase A (Streptococcus pyogenes serotype M1, UniProt P10520); assay: S. pyogenes streptokinase expression inhibitors, potency, dose response, plasminogen activation absorbance, OD405 (AID 1914); type: functional, Streptococcus pyogenes M1 GAS;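 also: secreted streptokinase activity via plasminogen activation per viability signal from cell pellet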
T2 sequence (P10520 whole entry): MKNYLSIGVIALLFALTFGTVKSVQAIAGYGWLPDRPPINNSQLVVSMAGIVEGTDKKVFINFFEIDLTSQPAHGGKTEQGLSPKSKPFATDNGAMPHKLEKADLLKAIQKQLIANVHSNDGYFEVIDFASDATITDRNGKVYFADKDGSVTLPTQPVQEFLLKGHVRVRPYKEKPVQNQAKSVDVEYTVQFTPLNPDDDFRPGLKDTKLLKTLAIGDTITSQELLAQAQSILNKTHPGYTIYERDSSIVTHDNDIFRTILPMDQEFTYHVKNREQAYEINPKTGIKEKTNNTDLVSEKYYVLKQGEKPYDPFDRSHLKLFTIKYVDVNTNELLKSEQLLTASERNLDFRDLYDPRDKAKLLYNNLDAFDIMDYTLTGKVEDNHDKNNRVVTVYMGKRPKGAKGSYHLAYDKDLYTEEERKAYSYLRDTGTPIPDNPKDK

Cc1cc(-c2nc3cccnc3s2)ccc1NS(=O)(=O)c1cccs1
AC50 [1]: 7.51 µM (active) | EC50 [2]: > 67.5 µM (inactive) | EC50 (H4): 0.197 µM (active) | EC50 [3]: 9.73 µM (active) | EC50 [4]: 30.8 µM (active)

C[C@@H]1CCCCO[C@H](CN(C)Cc2ccc(C(F)(F)F)cc2)[C@H](C)CN([C@H](C)CO)C(=O)c2cc(NS(=O)(=O)c3ccc(Cl)cc3)ccc2O1
AC50 [5]: 12.7 µM (active) | AC50 [6]: 39 µM (active) | AC50 [7]: 15.9 µM (active) | AC50 (Paired box protein Pax-8): 5.45 µM (active) | AC50 [8]: 34.6 µM (active)

Cc1ccc(C2CC(=O)c3cnc(N4CCc5ccccc5C4)nc3C2)cc1 (configuration not stated)
EC50 [9]: > 50 µM (not active)

Cc1ccc(OCCN2C(=O)C(=O)c3cc(OC(F)(F)F)ccc32)cc1
EC50 [10]: 0.52 µM (active)

Cn1ccs/c1=N\C(=O)c1ccc([N+](=O)[O-])o1
AC50 (Caspase-6): 6.3 µM (active) | EC50 [11]: < 0.1 µM (active) | EC50 [12]: 24 µM (active) | EC50 (cells): 0.03 µM (active)

NC(=O)c1ccccc1NC(=O)c1ccc2ccccc2c1
EC50 [13]: > 67.6 µM (inactive) | IC50 [14]: > 67.6 µM (inactive)

Cc1cc(CC(C)CC(C)(C)C)n(O)c(=O)c1 (configuration not stated) [PIROCTONE]
IC50 [15]: > 10 µM (inactive) | IC50 [16]: > 10 µM (inactive)

OC[C@H]1[C@H](c2ccc(C#CC3CCCC3)cc2)[C@@H]2CN(CCC(F)(F)F)CCCCN12
AC50 [17]: 16.8 µM (active) | AC50 [18]: 10.4 µM (active) | AC50 [19]: 0.848 µM (active)

CCC(C)COC(=O)C(C#N)c1nc2ccccc2nc1N1CCCCC1 (configuration not stated)
IC50 (Ephrin type-A receptor 4): 17.5 µM (active) | EC50 [20]: 41.9 µM (active) | EC50 (Streptococcus): 150 µM (active) | EC50 (Streptokinase A): > 150 µM (not active)
